Like-named read-outs stand apart in the source and are kept apart here.
Experiments:
human P-gp (MDR1) = molecular target: T1, human P-gp (MDR1) (Homo sapiens, UniProt P08183); assay: Transwell transport of temozolomide, LLC-MDR1 cells; type: in vitro ADME; conditions: 40 μg/ml, LLC-MDR1 versus LLC-PK1 monolayers
T1 construct: expressed in transfected cells; host or cells: LLC-PK1 (porcine kidney) cells transduced with human MDR1
Experimental: The parental LLC pig-kidney (PK1) cell line and sublines transduced with murine Mdr1a or human MDR1 (12) and the parental Madine Darby Canine Kidney (MDCK) and murine Bcrp1 or human BCRP transduced sublines (13) were seeded on Transwell microporous polycarbonate membrane filters (3.0 μm pore size, 24 mm diameter; Costar Corning, N.Y., USA) at a density of 1×10^6 cells per well in 2 ml of MEM medium (Invitrogen Corporation, Carlsbad, Calif.) containing 10% v/v fetal calf serum. Cells were incubated at 37° C. in 5% CO2 for three days with one medium replacement after the first day. Two hours before the start of the experiment the medium in both compartments was replaced with 2 ml of OptiMEM medium (InVitrogen Corp.). At the start of the experiment the medium in the apical or basolateral compartment was replaced with 2 ml of freshly prepared OptiMEM medium containing 40 μg/ml of temozolomide. […] Zosuquidar (LY335979, 5 μM) was always added to the medium when doing experiments with MDCK cell lines to inhibit endogenous canine P-gp. Samples of 50 μl were collected every 30 min, for up to 2 h after start of the experiment. Because temozolomide is instable in medium at 37° C., we replaced one ml of the donor compartment by a freshly prepared aliquot every 30 min. […]

murine Bcrp1 = molecular target: T2, murine Bcrp1 (Mus musculus, UniProt Q7TMS5); assay: Transwell transport of temozolomide, MDCKII-Bcrp1 cells, without or with inhibitors; type: in vitro ADME; conditions: 40 μg/ml, MDCK-Bcrp1 versus MDCK parent, zosuquidar 5 μM
T2 construct: expressed in transfected cells; host or cells: MDCKII (canine kidney) cells transduced with murine Bcrp1
T2 sequence (Q7TMS5 1-657): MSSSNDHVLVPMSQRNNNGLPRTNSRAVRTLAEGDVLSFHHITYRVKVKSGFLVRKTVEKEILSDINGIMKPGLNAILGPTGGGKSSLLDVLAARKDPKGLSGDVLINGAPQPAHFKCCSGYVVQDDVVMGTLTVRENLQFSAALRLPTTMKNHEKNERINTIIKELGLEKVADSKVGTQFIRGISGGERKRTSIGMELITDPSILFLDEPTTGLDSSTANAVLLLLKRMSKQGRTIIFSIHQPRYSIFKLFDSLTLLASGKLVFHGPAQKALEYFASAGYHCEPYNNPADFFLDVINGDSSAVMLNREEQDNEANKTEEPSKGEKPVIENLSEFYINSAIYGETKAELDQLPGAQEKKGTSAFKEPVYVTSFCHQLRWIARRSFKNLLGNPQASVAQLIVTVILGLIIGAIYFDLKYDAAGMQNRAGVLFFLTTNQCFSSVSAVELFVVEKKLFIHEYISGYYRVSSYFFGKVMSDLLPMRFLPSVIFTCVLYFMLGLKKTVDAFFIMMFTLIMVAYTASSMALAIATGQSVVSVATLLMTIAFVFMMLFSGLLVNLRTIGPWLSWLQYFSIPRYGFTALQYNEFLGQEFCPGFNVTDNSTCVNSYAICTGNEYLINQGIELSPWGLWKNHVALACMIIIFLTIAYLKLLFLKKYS
Experimental: The parental LLC pig-kidney (PK1) cell line and sublines transduced with murine Mdr1a or human MDR1 (12) and the parental Madine Darby Canine Kidney (MDCK) and murine Bcrp1 or human BCRP transduced sublines (13) were seeded on Transwell microporous polycarbonate membrane filters (3.0 μm pore size, 24 mm diameter; Costar Corning, N.Y., USA) at a density of 1×10^6 cells per well in 2 ml of MEM medium (Invitrogen Corporation, Carlsbad, Calif.) containing 10% v/v fetal calf serum. Cells were incubated at 37° C. in 5% CO2 for three days with one medium replacement after the first day. Two hours before the start of the experiment the medium in both compartments was replaced with 2 ml of OptiMEM medium (InVitrogen Corp.). At the start of the experiment the medium in the apical or basolateral compartment was replaced with 2 ml of freshly prepared OptiMEM medium containing 40 μg/ml of temozolomide. […] Zosuquidar (LY335979, 5 μM) was always added to the medium when doing experiments with MDCK cell lines to inhibit endogenous canine P-gp. Samples of 50 μl were collected every 30 min, for up to 2 h after start of the experiment. Because temozolomide is instable in medium at 37° C., we replaced one ml of the donor compartment by a freshly prepared aliquot every 30 min. [^3H]-inulin (approximately 7 kBq per well) was added to the same compartment as temozolomide to check the integrity of the cell layer. Wells showing a leakage of more than 1.5% per hour were excluded.
First, we took samples every 30 min for up to 2 h instead of every hour for up to 4 h. Secondly, to maintain adequate temozolomide levels at the donor side throughout the experiment we replaced 1 ml of the 2 ml of medium at the donor side of the transwell at each sampling time by 1 ml of a freshly prepared temozolomide solution in medium.

[1] = Plasma exposure of oral temozolomide in mice; type: in vivo; conditions: mouse, 100 mg/kg, read-out: AUC0-7 h, plasma
Experimental: We also established the drug exposure in wild-type (n=18) and Bcrp1/Mdr1ab knockout mice (n=19) receiving an oral dose of 100 mg/kg by gavage. Blood was sampled from the tail at 15, 30 min and 1, 4 and 7 h post drug administration to obtain a full curve from each animal.
Plasma and brain AUC0-7h values and standard errors were calculated by the linear trapezoidal rule using standard equations (14). The plasma half-life of temozolomide was calculated by linear regression analysis after log transformation of the concentration data using Microsoft Excel 2003. The brain-to-plasma ratio was calculated for each individual animal. The two-sided unpaired Student's t-test was used for statistical analysis of AUC values. Bonferroni's test for multiple comparisons was calculated using SPSS (v12.0.1; SPSS Inc, Chicago, Ill., USA) for brain and plasma levels and brain-to-plasma ratios determined at 2 h post temozolomide administration with the inhibitors and for analyzing the results of the in vivo efficacy study.

T1 sequence (P08183 whole entry): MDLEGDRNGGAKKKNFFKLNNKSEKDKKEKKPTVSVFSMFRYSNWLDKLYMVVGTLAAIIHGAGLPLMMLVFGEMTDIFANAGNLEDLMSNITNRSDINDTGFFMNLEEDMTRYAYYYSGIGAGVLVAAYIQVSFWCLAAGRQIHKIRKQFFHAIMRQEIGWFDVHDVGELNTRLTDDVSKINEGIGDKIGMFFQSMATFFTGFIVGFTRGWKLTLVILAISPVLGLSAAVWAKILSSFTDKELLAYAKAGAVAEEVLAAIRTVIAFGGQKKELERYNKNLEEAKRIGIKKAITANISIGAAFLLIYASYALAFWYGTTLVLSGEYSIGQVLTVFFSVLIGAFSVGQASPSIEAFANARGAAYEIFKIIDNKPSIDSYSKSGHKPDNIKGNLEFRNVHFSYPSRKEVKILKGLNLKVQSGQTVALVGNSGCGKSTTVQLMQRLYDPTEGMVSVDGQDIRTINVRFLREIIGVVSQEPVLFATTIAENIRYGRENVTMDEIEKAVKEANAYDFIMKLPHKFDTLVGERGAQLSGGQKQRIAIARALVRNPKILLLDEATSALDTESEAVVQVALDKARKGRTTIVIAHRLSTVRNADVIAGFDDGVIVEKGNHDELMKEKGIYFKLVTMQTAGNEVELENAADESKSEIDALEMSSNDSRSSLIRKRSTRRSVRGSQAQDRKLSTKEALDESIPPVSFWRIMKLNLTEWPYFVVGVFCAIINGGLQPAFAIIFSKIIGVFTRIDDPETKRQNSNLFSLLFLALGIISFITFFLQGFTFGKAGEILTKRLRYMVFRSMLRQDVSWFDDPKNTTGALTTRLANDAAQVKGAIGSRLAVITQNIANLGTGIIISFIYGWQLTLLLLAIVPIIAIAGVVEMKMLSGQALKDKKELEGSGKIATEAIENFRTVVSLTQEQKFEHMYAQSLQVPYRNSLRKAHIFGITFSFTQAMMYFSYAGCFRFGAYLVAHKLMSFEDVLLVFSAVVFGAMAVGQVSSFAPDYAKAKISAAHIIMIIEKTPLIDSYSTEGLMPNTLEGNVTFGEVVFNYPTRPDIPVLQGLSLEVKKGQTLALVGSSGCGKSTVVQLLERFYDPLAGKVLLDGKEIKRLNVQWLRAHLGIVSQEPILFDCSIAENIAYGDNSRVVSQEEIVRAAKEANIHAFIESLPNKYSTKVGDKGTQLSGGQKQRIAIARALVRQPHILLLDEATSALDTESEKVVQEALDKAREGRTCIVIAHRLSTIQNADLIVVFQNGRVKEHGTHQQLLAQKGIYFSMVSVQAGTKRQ

Cn1nnc2c(C(N)=O)ncn2c1=O [temozolomide, 8-carbamoyl-3-methyl-[3H]-imidazo[5,1-d]-1,2,3,5-tetrazin-4-one]
transport of temozolomide by human P-gp (human P-gp (MDR1)): very limited if any evidence for transport | transport of temozolomide by human P-gp (human P-gp (MDR1); listed as Temozolomide): not readily detected | transport of temozolomide by murine Bcrp1 (murine Bcrp1): clear vectorial transport | transport of temozolomide by murine Bcrp1 (murine Bcrp1; listed as Temozolomide): evident | AUC(0-t) ([1]; Bcrp, Mdr1ab knockout mice): 164 ± 4.5 µg·h/mL | AUC(0-t) ([1]; Wild-type mice): 154 ± 4.1 µg·h/mL

— US20090170880A1, “Methods and Means for the Treatment of Cancer” (priority 2007, published 2009)
